Experimental data published in US12252531B2, “Methods of screening for high-affinity, isoform-selective TGFβ1 inhibitors” (Scholar Rock, Inc., priority 2018, dated 2025).

Legend:
[1] = tested on: TGFβ downstream tonic signaling; settings: non-diseased rat BAL; cited from earlier work
[2] = Safety/toxicology study in rats; settings: rat, in vivo
Text: Animals were sacrificed on Day 29 and necropsies performed.
Both halves were submitted for embedding.

[3] = tested on: intratumoral immune cells in MBT2 tumors; assay: MBT2 tumor immune contexture (flow cytometry, IHC, qPCR); assay type: in vivo, mouse; settings: MBT2 tumors (FIG. 30F)
Description: Each study group contained 12 mice with MBT2 tumors as described herein. Ab6-treatment group received the antibody weekly, on day 1 and day 8, at 10 mg/kg. Anti-PD1 treatment group was treated biweekly at 10 mg/kg per injection, on days 1, 4, 8 and 11, total of 20 mg/kg per week. […] On day 13, tumors were collected from the mice as shown above.
Flow cytometric analysis: Tumor-associated immune cell subsets were also analyzed by tumor flow cytometry in MBT-2 tumors. Briefly, tumors were excised and weighed prior to dissociation using the Tumor Dissociation Kit for gentleMACS (Miltenyi). Samples were filtered through a 70 μm cell strainer to remove any aggregates. […] Flow cytometry was performed on a Attune NxT (ThermoFisher) and analyzed with FlowJo (BD Bioscience).
For immunohistochemical analysis, tumors from six animals were cut in halves and fixed. […] FIG. 30E provides the quantitation of the IHC data, shown as % of CD8-positive cells of total nuclei. […]

| Molecule | inhibition of TGFβ downstream tonic signaling [1] | bone findings [2] | incidence/severity of bone findings compared with pan-TGFβ antibody ([2]; po) | phospho-SMAD3 staining near tumor vascular endothelium (IHC) [3] |
| --- | --- | --- | --- | --- |
| c1ccc(-c2nn3c(c2-c2ccnc4cc(OCCN5CCOCC5)ccc24)CCC3)nc1 [LY2109761] | shown to inhibit TGFβ downstream tonic signaling | macroscopic abnormally shaped sternum and microscopic increased thickness of the hypertrophic zone in the endplate of the sternum and physis of the femur and tibia | higher incidence and/or severity |  |
| Ab6-mIgG1: chimeric antibody with the human V domains of Ab6 fused to mouse IgG1/kappa constant domains (protein) heavy chain: EVQLVESGGGLVQPGGSLRLSCTASGFTFSSFSMDWVRQAPGKGLEWVSYISPSADTIYYADSVKGRFTISRDNAKNTLYLQMNSLRAEDTAVYYCARGVLDYGDMLMPWGQGTLVTVSS light chain: DIQMTQSPSSLSASVGDRVTITCQASQDITNYLNWYQQKPGKAPKLLIYDASNLETGVPSRFSGSGSGTDFTFTISSLQPEDIATYYCQQADNHPPWTFGGGTKVEIK |  |  |  | much diminished |
